Literature values, collected in patent US20040019053A1, “Combination of an allosteric carboxylic inhibitor of matrix metalloproteinase-13 with celecoxib or valdecoxib” (priority 2002, published 2004).

Cc1onc(-c2ccccc2)c1-c1ccc(S(N)(=O)=O)cc1 [valdecoxib, 4-(5-methyl-3-phenyl-4-isoxazolyl)-benzenesulfonamide]
Tolerability (combined analysis of clinical studies): well tolerated
Overall upper gastrointestinal safety profile (ulcers, perforations, obstructions and GI bleeds) (versus ibuprofen, diclofenac and naproxen): significantly better than the conventional NSAIDs studied
